Structures are written as SMILES.

The test system of one assay is HEK293 cells. Kind of assay: Preliminary screening as DNA vectors, GFP transfection of HEK293 cells. In kind it is cell-based. To be noted: HEK293 cells; lipid/DOPE liposome with 75 ng plasmid DNA (psin-EGFP-IRES-Puro); number of cells expressing GFP divided by total number of nuclei (Hoechst). The essentials:
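First, amino lipid and DOPE were vortexed in sodium acetate buffer (pH 5.6) to form liposomes. Next, these were held with 75 ng EGFP plasmid at room temperature for 30 min. Finally, HEK293 cells were added, cultured at 37° C., Hoechst-stained, and GFP+/total nuclei scored by imaging.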
As to `CCCCCCCCCCCCCCCCCCNc1nc(NCCCCCCCC)nc(NCCN2CCOCC2)n1` [Compound N8N18D2], the “Absolute DNA transfection efficiency in HEK293 cells” value (shortened to “Absolute DNA transfection efficiency”) is reported as 1.7%.

With `CCCCCCCCCCCCCCCCCCNc1nc(NCCCCCCCC)nc(NCCN2CCCC2)n1` [Compound N8N18D3], the “Absolute DNA transfection efficiency” value is 9.8%.

Consider `CCCCCCCCCCCCCCCCCCNc1nc(NCCCCCCCC)nc(NCCN2CCCCC2)n1` [Compound N8N18D4], for which the “Absolute DNA transfection efficiency” value was determined as 8.2%.

For `CCCCCCCCCCCCCCCCCCNc1nc(NCCCCCCCC)nc(NCCN2CCN(C)CC2)n1` [Compound N8N18D5], the “Absolute DNA transfection efficiency” value is reported as 1.9%.

Consider `CCCCCCCCCCCCCCCCCCNc1nc(NCCCCCCCC)nc(NCCCN(C)C)n1` [Compound N8N18D6], for which the “Absolute DNA transfection efficiency” value is given as 2.2%.

As for `CCCCCCCCCCCCCCCCCCNc1nc(NCCCCCCCC)nc(NCCN(CC)CC)n1` [Compound N8N18D7], the “Absolute DNA transfection efficiency” value was found to be 2.7%.

As for `CCCCCCCCCCCCCCCCCCNc1nc(NCCCCCCCC)nc(NCCCN2CCOCC2)n1` [Compound N8N18D8], the “Absolute DNA transfection efficiency” value stood at 1.3%.

`CCCCCCCCCCCCCCCCCCNc1nc(NCCCCCCCC)nc(NCCCN2CCN(C)CC2)n1` [Compound N8N18D9]: the “Absolute DNA transfection efficiency” value amounted to 1.2%.

Regarding `CCCCCCCCCCCCCCCCCCNc1nc(NCCCCCCCC)nc(NCC2CCN(C)CC2)n1` [Compound N8N18D10], the “Absolute DNA transfection efficiency” value came to 1.4%.

Regarding `CCCCCCCCCNc1nc(NCCCCCCCCC)nc(NCCN(C)C)n1` [Compound N9N9D1], the “Absolute DNA transfection efficiency” value is 0.2%.

As for `CCCCCCCCCNc1nc(NCCCCCCCCC)nc(NCCN2CCOCC2)n1` [Compound N9N9D2], the “Absolute DNA transfection efficiency” value came to 0.0%.

Regarding `CCCCCCCCCNc1nc(NCCCCCCCCC)nc(NCCN2CCCC2)n1` [Compound N9N9D3], the “Absolute DNA transfection efficiency” value was determined as 0.3%.

On to `CCCCCCCCCNc1nc(NCCCCCCCCC)nc(NCCN2CCCCC2)n1` [Compound N9N9D4], for which the “Absolute DNA transfection efficiency” value turned out to be 0.0%.

For `CCCCCCCCCNc1nc(NCCCCCCCCC)nc(NCCN2CCN(C)CC2)n1` [Compound N9N9D5], the “Absolute DNA transfection efficiency” value is given as 0.0%.

`CCCCCCCCCNc1nc(NCCCCCCCCC)nc(NCCCN(C)C)n1` [Compound N9N9D6]: the “Absolute DNA transfection efficiency” value is 0.2%.

For `CCCCCCCCCNc1nc(NCCCCCCCCC)nc(NCCN(CC)CC)n1` [Compound N9N9D7], the “Absolute DNA transfection efficiency” value is 0.0%.

For `CCCCCCCCCNc1nc(NCCCCCCCCC)nc(NCCCN2CCOCC2)n1` [Compound N9N9D8], the “Absolute DNA transfection efficiency” value is listed as 0.0%.

As to `CCCCCCCCCNc1nc(NCCCCCCCCC)nc(NCCCN2CCN(C)CC2)n1` [Compound N9N9D9], the “Absolute DNA transfection efficiency” value is 0.0%.

Consider `CCCCCCCCCNc1nc(NCCCCCCCCC)nc(NCC2CCN(C)CC2)n1` [Compound N9N9D10], for which the “Absolute DNA transfection efficiency” value came to 0.0%.

For the compound `CCCCCCCCCCCNc1nc(NCCCCCCCCC)nc(NCCN(C)C)n1` [Compound N9N11D1], the “Absolute DNA transfection efficiency” value is given as 0.0%.

Take `CCCCCCCCCCCNc1nc(NCCCCCCCCC)nc(NCCN2CCOCC2)n1` [Compound N9N11D2]: the “Absolute DNA transfection efficiency” value was found to be 0.0%.

In the case of `CCCCCCCCCCCNc1nc(NCCCCCCCCC)nc(NCCN2CCCC2)n1` [Compound N9N11D3], the “Absolute DNA transfection efficiency” value was 0.0%.

For `CCCCCCCCCCCNc1nc(NCCCCCCCCC)nc(NCCN2CCCCC2)n1` [Compound N9N11D4], the “Absolute DNA transfection efficiency” value worked out at 0.0%.

Turning to `CCCCCCCCCCCNc1nc(NCCCCCCCCC)nc(NCCN2CCN(C)CC2)n1` [Compound N9N11D5], the “Absolute DNA transfection efficiency” value was 0.0%.

On to `CCCCCCCCCCCNc1nc(NCCCCCCCCC)nc(NCCCN(C)C)n1` [Compound N9N11D6], for which the “Absolute DNA transfection efficiency” value turned out to be 0.0%.

As to `CCCCCCCCCCCNc1nc(NCCCCCCCCC)nc(NCCN(CC)CC)n1` [Compound N9N11D7], the “Absolute DNA transfection efficiency” value stood at 0.0%.

For `CCCCCCCCCCCNc1nc(NCCCCCCCCC)nc(NCCCN2CCOCC2)n1` [Compound N9N11D8], the “Absolute DNA transfection efficiency” value is 0.0%.

On to `CCCCCCCCCCCNc1nc(NCCCCCCCCC)nc(NCCCN2CCN(C)CC2)n1` [Compound N9N11D9], for which the “Absolute DNA transfection efficiency” value came out at 0.0%.

Regarding `CCCCCCCCCCCNc1nc(NCCCCCCCCC)nc(NCC2CCN(C)CC2)n1` [Compound N9N11D10], the “Absolute DNA transfection efficiency” value was 0.0%.

Take `CCCCCCCCCCCCNc1nc(NCCCCCCCCC)nc(NCCN(C)C)n1` [Compound N9N12D1]: the “Absolute DNA transfection efficiency” value is on record as 0.0%.

Turning to `CCCCCCCCCCCCNc1nc(NCCCCCCCCC)nc(NCCN2CCOCC2)n1` [Compound N9N12D2], the “Absolute DNA transfection efficiency” value is 0.0%.

In the case of `CCCCCCCCCCCCNc1nc(NCCCCCCCCC)nc(NCCN2CCCC2)n1` [Compound N9N12D3], the “Absolute DNA transfection efficiency” value is 0.6%.

Regarding `CCCCCCCCCCCCNc1nc(NCCCCCCCCC)nc(NCCN2CCCCC2)n1` [Compound N9N12D4], the “Absolute DNA transfection efficiency” value was 0.0%.

In the next assay the test system is HEK293 cells. Kind of assay: Preliminary screening as mRNA vectors, EGFP mRNA transfection of HEK293 cells. To be noted: HEK293 cells, 96-well plates, EGFP mRNA 50 ng per well; percentage of GFP fluorescent cells relative to total number of cells (Hoechst). The format is cell-based. The essentials: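 Screening format: EGFP mRNA transfection (50 ng/well) into HEK293 in 10% FBS-supplemented DMEM. Percent green fluorescent cells, normalised to Hoechst nuclear count, gave the value; Lipofectamine2000 was the reference transfectant.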
As for `CCCCCCCCCCCCCCCCCCNc1nc(NCCCCCCCC)nc(NCCN2CCOCC2)n1` [Compound N8N18D2], the “Absolute mRNA transfection efficiency in HEK293 cells” value (“Absolute mRNA transfection efficiency” below) amounted to 7.0%.

Consider `CCCCCCCCCCCCCCCCCCNc1nc(NCCCCCCCC)nc(NCCN2CCCC2)n1` [Compound N8N18D3], for which the “Absolute mRNA transfection efficiency” value was determined as 39.9%.

With `CCCCCCCCCCCCCCCCCCNc1nc(NCCCCCCCC)nc(NCCN2CCCCC2)n1` [Compound N8N18D4], the “Absolute mRNA transfection efficiency” value is recorded as 29.2%.

In the case of `CCCCCCCCCCCCCCCCCCNc1nc(NCCCCCCCC)nc(NCCN2CCN(C)CC2)n1` [Compound N8N18D5], the “Absolute mRNA transfection efficiency” value amounted to 0.9%.

Regarding `CCCCCCCCCCCCCCCCCCNc1nc(NCCCCCCCC)nc(NCCCN(C)C)n1` [Compound N8N18D6], the “Absolute mRNA transfection efficiency” value came to 4.1%.

As to `CCCCCCCCCCCCCCCCCCNc1nc(NCCCCCCCC)nc(NCCN(CC)CC)n1` [Compound N8N18D7], the “Absolute mRNA transfection efficiency” value is on record as 9.3%.

For `CCCCCCCCCCCCCCCCCCNc1nc(NCCCCCCCC)nc(NCCCN2CCOCC2)n1` [Compound N8N18D8], the “Absolute mRNA transfection efficiency” value is reported as 2.8%.

For `CCCCCCCCCCCCCCCCCCNc1nc(NCCCCCCCC)nc(NCCCN2CCN(C)CC2)n1` [Compound N8N18D9], the “Absolute mRNA transfection efficiency” value was 0.0%.

As to `CCCCCCCCCCCCCCCCCCNc1nc(NCCCCCCCC)nc(NCC2CCN(C)CC2)n1` [Compound N8N18D10], the “Absolute mRNA transfection efficiency” value was 5.0%.

Consider `CCCCCCCCCNc1nc(NCCCCCCCCC)nc(NCCN(C)C)n1` [Compound N9N9D1], for which the “Absolute mRNA transfection efficiency” value is 0.5%.

In the case of `CCCCCCCCCNc1nc(NCCCCCCCCC)nc(NCCN2CCOCC2)n1` [Compound N9N9D2], the “Absolute mRNA transfection efficiency” value is recorded as 0.1%.

For the compound `CCCCCCCCCNc1nc(NCCCCCCCCC)nc(NCCN2CCCC2)n1` [Compound N9N9D3], the “Absolute mRNA transfection efficiency” value came to 0.2%.

As for `CCCCCCCCCNc1nc(NCCCCCCCCC)nc(NCCN2CCCCC2)n1` [Compound N9N9D4], the “Absolute mRNA transfection efficiency” value is on record as 0.6%.

`CCCCCCCCCNc1nc(NCCCCCCCCC)nc(NCCN2CCN(C)CC2)n1` [Compound N9N9D5]: the “Absolute mRNA transfection efficiency” value is reported as 0.1%.

As for `CCCCCCCCCNc1nc(NCCCCCCCCC)nc(NCCCN(C)C)n1` [Compound N9N9D6], the “Absolute mRNA transfection efficiency” value amounted to 0.4%.

With `CCCCCCCCCNc1nc(NCCCCCCCCC)nc(NCCN(CC)CC)n1` [Compound N9N9D7], the “Absolute mRNA transfection efficiency” value is on record as 0.3%.

On to `CCCCCCCCCNc1nc(NCCCCCCCCC)nc(NCCCN2CCOCC2)n1` [Compound N9N9D8], for which the “Absolute mRNA transfection efficiency” value is on record as 0.6%.

Take `CCCCCCCCCNc1nc(NCCCCCCCCC)nc(NCCCN2CCN(C)CC2)n1` [Compound N9N9D9]: the “Absolute mRNA transfection efficiency” value came to 0.2%.

In the case of `CCCCCCCCCNc1nc(NCCCCCCCCC)nc(NCC2CCN(C)CC2)n1` [Compound N9N9D10], the “Absolute mRNA transfection efficiency” value turned out to be 0.8%.

For the compound `CCCCCCCCCCCNc1nc(NCCCCCCCCC)nc(NCCN(C)C)n1` [Compound N9N11D1], the “Absolute mRNA transfection efficiency” value is on record as 2.2%.

Turning to `CCCCCCCCCCCNc1nc(NCCCCCCCCC)nc(NCCN2CCOCC2)n1` [Compound N9N11D2], the “Absolute mRNA transfection efficiency” value is reported as 0.3%.

On to `CCCCCCCCCCCNc1nc(NCCCCCCCCC)nc(NCCN2CCCC2)n1` [Compound N9N11D3], for which the “Absolute mRNA transfection efficiency” value stood at 1.8%.

As for `CCCCCCCCCCCNc1nc(NCCCCCCCCC)nc(NCCN2CCCCC2)n1` [Compound N9N11D4], the “Absolute mRNA transfection efficiency” value amounted to 0.0%.

As to `CCCCCCCCCCCNc1nc(NCCCCCCCCC)nc(NCCN2CCN(C)CC2)n1` [Compound N9N11D5], the “Absolute mRNA transfection efficiency” value came out at 1.1%.

On to `CCCCCCCCCCCNc1nc(NCCCCCCCCC)nc(NCCCN(C)C)n1` [Compound N9N11D6], for which the “Absolute mRNA transfection efficiency” value amounted to 0.5%.

`CCCCCCCCCCCNc1nc(NCCCCCCCCC)nc(NCCN(CC)CC)n1` [Compound N9N11D7]: the “Absolute mRNA transfection efficiency” value is listed as 0.8%.

As to `CCCCCCCCCCCNc1nc(NCCCCCCCCC)nc(NCCCN2CCOCC2)n1` [Compound N9N11D8], the “Absolute mRNA transfection efficiency” value is 0.4%.

In the case of `CCCCCCCCCCCNc1nc(NCCCCCCCCC)nc(NCCCN2CCN(C)CC2)n1` [Compound N9N11D9], the “Absolute mRNA transfection efficiency” value worked out at 0.7%.

`CCCCCCCCCCCNc1nc(NCCCCCCCCC)nc(NCC2CCN(C)CC2)n1` [Compound N9N11D10]: the “Absolute mRNA transfection efficiency” value was found to be 0.0%.

Turning to `CCCCCCCCCCCCNc1nc(NCCCCCCCCC)nc(NCCN(C)C)n1` [Compound N9N12D1], the “Absolute mRNA transfection efficiency” value was 0.5%.

Consider `CCCCCCCCCCCCNc1nc(NCCCCCCCCC)nc(NCCN2CCOCC2)n1` [Compound N9N12D2], for which the “Absolute mRNA transfection efficiency” value is 0.8%.

Take `CCCCCCCCCCCCNc1nc(NCCCCCCCCC)nc(NCCN2CCCC2)n1` [Compound N9N12D3]: the “Absolute mRNA transfection efficiency” value stood at 4.3%.

In the case of `CCCCCCCCCCCCNc1nc(NCCCCCCCCC)nc(NCCN2CCCCC2)n1` [Compound N9N12D4], the “Absolute mRNA transfection efficiency” value is given as 2.4%.

For the origin of these results see patent publication US20230123334A1, “AMINO LIPID COMPOUND, PREPARATION METHOD THEREFOR, AND APPLICATION THEREOF” (SHENZHEN SHENXIN BIOTECHNOLOGY CO., LTD., priority 2020, published 2023).
